How the values were obtained:
PAR2 [1] = assay: Whole population FRET with cytosolic ERK sensor CytoEKAR in HEK293 cells; format: cell-based
Description: (§1) Förster Resonance Energy Transfer (FRET) was used to characterise PAR2 mediated ERK within different subcellular compartments upon stimulation with different agonists. The assays were repeated after employing pharmacological and genetic approaches shown to abolish receptor internalisation to assess the role of internalisation in generating compartmentalised signals.
(§2) After achieving ˜50% confluency within 10 cm dishes HEK293 cells were transfected with 2-5 μg of PAR2 with N-terminal HA epitope tag (PAR2-HA) and 2-5 μg of desired FRET biosensor, using PEI as a transfection agent. 24 hours after transfection, cells were seeded into poly-D-lysine coated black 96 well isoplates. FRET was assessed 48 hours after cell plating, following overnight serum restriction. […] When used endocytic inhibitors were diluted in 1×HBSS+1% dimethyl sulfoxide (DMSO). Following the replacement of culture media cells were allowed to equilibrate at 37° C. for 30 minutes. FRET was then determined using a PHERAstar FS microplate reader (BMG LabTech, Offenburg, Germany), cells were sequentially excited at 430 nm with emissions being read at 550 nm and 490 nm. A 4 minute baseline was obtained before the addition of vehicle (1×HBSS+/−1% DMSO), protease or 1 μM PDBu (serving as a positive control). Measurements were then continued every minute for a further 30 minutes. FRET ratios were then calculated and corrected to baseline and vehicle treatments in Microsoft Excel 2013.

PAR2 [2] = assay: BRET receptor trafficking, PAR2-RLuc8 with plasma membrane marker RIT-venus in HEK293 cells; format: cell-based
Description: (§3) Bret studies of receptor trafficking were conducted to quantify PAR2 internalisation (RIT-venus) and trafficking to early endosomes (Rab5a-venus) upon stimulation with different agonists.
(§4) After achieving ˜50% confluency within 10 cm dishes HEK293 cells were transiently transfected with 1 μg PAR2-RLuc8 and 4 μg of either RIT-venus or Rab5a-venus using PEI as a transfection agent. 24 hours post transfection, cells were seeded into poly-D-lysine coated 96-well isoplates. […] When used endocytic inhibitors were diluted in 1×HBSS+1% dimethyl sulfoxide (DMSO). Following the replacement of culture media cells were allowed to equilibrate at 37° C. for 30 minutes before the addition of colenterazine H [5 μM]. After a further 5 minute incubation BRET was assessed using a LUMIstar Omega microplate reader (BMG LabTech, Offenburg, Germany), with luminescence being read at 535 nm and 475 nm. A 4 minute baseline was obtained before the addition of vehicle (1×HBSS+/−1% DMSO) or protease, measurements were then continued for a further 30 minutes. BRET ratios were calculated using LUMIstar MARS analysis software and then corrected to baseline and vehicle treatments in Microsoft Excel 2013.

PAR2 [3] = assay: FRET biosensors for compartmentalised cAMP, PKC and ERK signals in HEK cells and rat dorsal root ganglia neurons; format: cell-based
Description: (§5) The contribution of endocytosis of protease-activated receptor-2 (PAR2) was evaluated for generation of signals in subcellular compartments that mediate protease-evoked sensitization of nociceptors. Bioluminescence resonance energy transfer (BRET) was used to assess the proximity of PAR2 to resident proteins of the plasma membrane (KRas) and endosomes (Rab5a) in HEK cells. […] Förster resonance energy transfer (FRET) biosensors targeted to the plasma membrane, cytosol or nucleus were used to examine the capacity of proteases to generate signals in subcellular compartments of HEK cells and rat dorsal root ganglia neurons. […] Dynamin inhibitor Dyngo4a, Clathrin inhibitor Pitstop2 and dominant negative β-arrestin inhibited trypsin-evoked endocytosis of PAR2, and prevented trypsin-evoked activation of cytosolic cAMP and PKC and nuclear ERK. […] To examine the link between PAR2 endocytosis, compartmentalized signaling and nociceptor sensitization, perforated patch clamp recordings were made from mouse dorsal root ganglia neurons. […] The effects of proteases on excitability were blocked by the PAR2 antagonist GB88. Thus, canonical and biased proteases sensitize nociceptors by distinct mechanisms. For canonical agonists, PAR2 endocytosis generates compartmentalized signals subcellular compartments that underlie sustained excitability of nociceptive neurons. Inhibiting endosomal signaling of PAR2 may provide a novel method of treating protease-evoked pain.

DRG neurons = assay: Perforated patch-clamp excitability (rheobase) of isolated DRG neurons; format: cell-based, mice; settings: 0 min and 30 min after washing
Description: To assess the effects of proteases on excitability of nociceptors, DRG neurons were preincubated with trypsin, cathepsin S, elastase or vehicle (control), washed, and rheobase and action potential discharge at a current of twice rheobase were measured at 0 min or 30 min after washing.
DRG (T9-T13) from C57BL/6 mice were digested by incubation in collagenase (1 mg/ml, Worthington Biochemical, Lakewood, N.J.) and dispase (4 mg/ml, Roche Life Science, Indianapolis, Ind.) for 10 min at 37° C., and were dispersed by trituration with a fire-polished Pasteur pipette. Cells were plated onto coverslips coated with laminin (0.017 mg/ml) and poly-D-lysine (2 mg/ml) in 24-well plates. Neurons were cultured in F12 medium (Cat N668, Lot RNBD5333, Sigma-Aldrich, St Louis, Mo. USA) containing 10% fetal calf serum, with penicillin and streptomycin and maintained at 37° C. in a humidified atmosphere of 95% air and 5% CO2 until retrieval (16 h) for electrophysiological studies.
Neuronal excitability was assessed by perforated patch-clamp recordings with amphotericin B (240 μg/ml) from small diameter neurons (<30 pF capacitance) in current clamp mode at room temperature. Only neurons with resting membrane potentials more negative than −40 mV were analyzed. Changes in excitability were quantified by measuring rheobase (minimum current to fire action potential) and numbers of action potentials discharged at twice rheobase. Recordings were made using Axopatch 200B amplifiers, digitized by Digidata 1322A and stored and processed using pClamp 10.1 software (Molecular Devices, Sunnyvale, Calif.). The recording chamber was continuously perfused with external solution at 2 ml/min. External solution was (mM): 140 NaCl, 5 KCl, 10 HEPES, 10 D-glucose, 1 MgCl2, 2 CaCl2; pH to 7.4 with 3 M NaOH. Pipette solution was (mM): 110 K-gluconate, 30 KCl, 10 HEPES, 1 MgCl2, 2 CaCl2; pH 7.25 with 1 M KOH.
DRG neurons were pre-incubated with vehicle (control) or proteases using conditions that we have reported to cause robust hyperexcitability: trypsin (50 nM, 10 min), elastase (10 U/ml, 390 nM, 30 min), Cat-S (500 nM, 60 min). Neurons were then washed and maintained in protease-free F12 medium. Neuronal excitability was assessed 0 or 30 min after washing. In some experiments, neurons were incubated with vehicle (0.3% DMSO), Dyngo4a (30 μM) or PitStop2 (15 μM) for 30 min before and during incubation with proteases.
Results are expressed as mean±SE. Two way ANOVA and post hoc Tukey's tests were used to analyze the data.

PAR2 [4] = assay: BRET receptor trafficking, PAR2-RLuc8 with early endosomal marker Rab5a-venus in HEK293 cells; format: cell-based
Description: as §3, §4

PAR2 [5] = assay: BRET proximity of PAR2 to KRas (plasma membrane) and Rab5a (endosomes) in HEK cells; format: cell-based; settings: HEK cells
Description: as §5

[6] = Protease-evoked paw edema, hindpaw thickness; format: in vivo, mice; settings: ipsilateral paw
Description: (§6) Immediately before experiments the mice were acclimatized to the experimental apparatus, room and investigator for 1-2 h on 2 successive days. Mechanical nociceptive responses were evaluated by paw withdrawal to stimulation of the plantar surface of the hind-paw with calibrated von Frey filaments. von Frey scores were measured in triplicate to establish a baseline for each animal on the day before experiments. Paw edema was estimated by measuring the thickness of the hindpaw using digital calipers before and after treatments. Mice were […] with 5% isoflurane for intraplantar injections. Dyngo4a (50 μM), PitStop2 (50 μM) or vehicle (0.2% DMSO in 0.9% NaCl) (all 10 μl) were injected into the left hindpaw. After 30 min, trypsin (10 nM), Cat-S (2.5 μM) or elastase (30 U) (all 10 μl) were injected into the same left hindpaw. von Frey scores (left and right paws) and paw thickness (left paw) were measured hourly for up to 4 h after protease injection. Investigators were blinded to the test agents.

[7] = Protease-evoked mechanical hyperalgesia, von Frey paw withdrawal; format: in vivo, mice; settings: ipsilateral paw
Description: as §6

PAR2 [8] = assay: Whole population FRET with nuclear ERK sensor NucEKAR in HEK293 cells; format: cell-based
Description: as §1
as §2, with “Measurements were then continued every minute for a further 30 minutes.” left out

trypsin
Ability of agonist to produce ERK signals within the cytoplasm (PAR2 [1]): able to produce ERK signals | EC50 (PAR2 [2]; RIT-venus, CRC from AUC data, read-out: EC50 of trypsin induced internalisation of PAR2, plasma membrane marker): ~2.8 nM | Change in BRET between PAR2 and plasma membrane marker upon agonist stimulation (PAR2 [2]; trypsin 10 nM): time dependent decrease in BRET | Signals generated by protease in subcellular compartments (PAR2 [3]): activated cAMP and protein kinase C (PKC) at the plasma membrane and in the cytosol, and extracellular signal regulate kinase (ERK) in the nucleus and cytosol | Effect of protease on excitability (rheobase) of DRG neurons (DRG neurons): immediate increase in excitability | EC50 (PAR2 [4]; Rab5a-venus, CRC from AUC data, read-out: EC50 of trypsin induced internalisation of PAR2, early endosomal marker): ~2.8 nM | Change in BRET between PAR2 and early endosomal marker upon agonist stimulation (PAR2 [4]; trypsin 10 nM): increase in BRET | PAR2 endocytosis induced by agonist (PAR2 [5]): increases BRET between PAR2 and Rab5a and decreases BRET between PAR2 and KRas | Edema after intraplantar injection of protease [6]: edema of the ipsilateral paw that was maximal after 4 h | Mechanical hyperalgesia after intraplantar injection of protease [7]: caused mechanical hyperalgesia of the ipsilateral paw that was sustained for at least 4 h | Ability of agonist to produce ERK signals within the nucleus (PAR2 [8]): able to produce ERK signals
